Data on two compounds can be found in article PMC7366380, “Discovery of a Potent and Selective Covalent Inhibitor and Activity-Based Probe for the Deubiquitylating Enzyme UCHL1, with Antifibrotic Activity” (Journal of the American Chemical Society, 2020).

Assay [1] concerns the target DUBs and other proteins in HEK293 cells (Homo sapiens, UniProt O15372). Briefly: In-cell proteome-wide competitive ABPP, HEK293: other DUBs and proteins. The settings on record: for Log2 reporter intensity values, EIF3H: TMT replicates; for Log2 reporter intensity values: EIF3H: competition with ABP 2, DMSO substract (FC); for Log2 reporter intensity values: EIF3H / Log2 reporter intensity values: replicates A-C; for Log2 t-test Difference / Log2 reporter intensity values: EIF3H.

Assay [2] concerns the target DUBs and other proteins in HEK293 cells (Homo sapiens, UniProt Q93008). The assay is described as above. The settings on record: replicates A-C; for Log2 reporter intensity values: USP9X;USP9Y: competition with ABP 2, DMSO substract (FC); for Log2 reporter intensity values: USP9X;USP9Y, DMSO subtracted.
Assay [3] concerns the target DUBs and other proteins in HEK293 cells (Homo sapiens, UniProt Q9UPU5). The assay is described as above. The note with it: replicates A-C; for Log2 reporter intensity values: USP24: competition with ABP 2, DMSO substract (FC); for Log2 reporter intensity values: USP24, DMSO subtracted.
The target of assay [4] is DUBs and other proteins in HEK293 cells (Homo sapiens, UniProt P51784). The description is as above. The note with it: replicates A-C; for Log2 reporter intensity values: USP11: competition with ABP 2, DMSO substract (FC); for Log2 reporter intensity values: USP11, DMSO subtracted.
Sequence of DUBs and other proteins in HEK293 cells (Homo sapiens, UniProt P51784) (P51784 whole entry): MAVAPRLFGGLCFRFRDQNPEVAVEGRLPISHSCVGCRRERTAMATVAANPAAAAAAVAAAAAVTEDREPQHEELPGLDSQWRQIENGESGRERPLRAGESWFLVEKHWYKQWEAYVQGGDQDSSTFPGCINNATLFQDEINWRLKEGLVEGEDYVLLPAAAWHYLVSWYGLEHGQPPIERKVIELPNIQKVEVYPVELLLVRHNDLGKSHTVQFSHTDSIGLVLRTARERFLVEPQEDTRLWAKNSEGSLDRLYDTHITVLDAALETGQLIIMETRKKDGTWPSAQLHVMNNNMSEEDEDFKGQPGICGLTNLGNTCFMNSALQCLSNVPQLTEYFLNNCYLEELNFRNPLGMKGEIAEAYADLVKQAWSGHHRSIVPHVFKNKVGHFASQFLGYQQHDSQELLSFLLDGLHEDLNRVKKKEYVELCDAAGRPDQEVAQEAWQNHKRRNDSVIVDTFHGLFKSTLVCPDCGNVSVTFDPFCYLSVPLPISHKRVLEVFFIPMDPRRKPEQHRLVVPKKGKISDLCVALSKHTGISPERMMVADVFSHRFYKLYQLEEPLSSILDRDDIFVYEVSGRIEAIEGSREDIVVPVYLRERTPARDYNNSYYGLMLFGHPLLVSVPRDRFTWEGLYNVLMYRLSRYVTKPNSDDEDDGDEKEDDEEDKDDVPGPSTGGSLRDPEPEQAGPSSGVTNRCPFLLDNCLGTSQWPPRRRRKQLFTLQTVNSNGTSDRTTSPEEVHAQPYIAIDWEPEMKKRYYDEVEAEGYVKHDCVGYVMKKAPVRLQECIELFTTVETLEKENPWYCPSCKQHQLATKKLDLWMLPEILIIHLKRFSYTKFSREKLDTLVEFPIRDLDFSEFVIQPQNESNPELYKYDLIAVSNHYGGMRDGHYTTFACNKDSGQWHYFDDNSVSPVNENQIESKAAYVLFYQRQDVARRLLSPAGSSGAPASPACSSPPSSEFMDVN
Assay [5] deals with T1, DUBs and other proteins in HEK293 cells (Homo sapiens, UniProt P45974).
T1 sequence (P45974 1-858): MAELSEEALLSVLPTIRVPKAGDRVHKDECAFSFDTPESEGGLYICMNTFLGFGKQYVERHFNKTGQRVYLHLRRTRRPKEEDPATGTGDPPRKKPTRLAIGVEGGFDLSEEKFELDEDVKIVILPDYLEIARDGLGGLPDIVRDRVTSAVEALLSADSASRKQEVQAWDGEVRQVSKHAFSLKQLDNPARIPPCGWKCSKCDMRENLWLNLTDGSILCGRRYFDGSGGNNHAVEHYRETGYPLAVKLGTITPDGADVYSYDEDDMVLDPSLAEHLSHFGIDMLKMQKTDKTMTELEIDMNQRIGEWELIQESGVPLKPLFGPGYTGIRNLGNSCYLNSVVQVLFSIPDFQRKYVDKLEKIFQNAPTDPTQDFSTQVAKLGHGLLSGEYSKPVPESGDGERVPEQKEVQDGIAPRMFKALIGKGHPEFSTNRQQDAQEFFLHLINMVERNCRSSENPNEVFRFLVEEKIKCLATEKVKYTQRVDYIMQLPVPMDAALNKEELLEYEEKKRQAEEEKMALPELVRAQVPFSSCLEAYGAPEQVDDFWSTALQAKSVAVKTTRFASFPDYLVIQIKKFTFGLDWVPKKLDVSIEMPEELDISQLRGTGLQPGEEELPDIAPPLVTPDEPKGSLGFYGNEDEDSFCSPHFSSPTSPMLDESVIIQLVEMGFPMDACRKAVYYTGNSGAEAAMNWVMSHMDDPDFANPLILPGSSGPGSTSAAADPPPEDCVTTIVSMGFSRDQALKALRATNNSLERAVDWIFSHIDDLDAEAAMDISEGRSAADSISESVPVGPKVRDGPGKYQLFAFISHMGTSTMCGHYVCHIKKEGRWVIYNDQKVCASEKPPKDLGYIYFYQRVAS
The assay is described as above. The note with it: replicates A-C; for Log2 reporter intensity values: USP5: competition with ABP 2, DMSO substract (FC); for Log2 reporter intensity values: USP5, DMSO subtracted.

The target in assay [6] is T2, DUBs and other proteins in HEK293 cells (Homo sapiens, UniProt P51665).
T2 sequence (P51665 1-324): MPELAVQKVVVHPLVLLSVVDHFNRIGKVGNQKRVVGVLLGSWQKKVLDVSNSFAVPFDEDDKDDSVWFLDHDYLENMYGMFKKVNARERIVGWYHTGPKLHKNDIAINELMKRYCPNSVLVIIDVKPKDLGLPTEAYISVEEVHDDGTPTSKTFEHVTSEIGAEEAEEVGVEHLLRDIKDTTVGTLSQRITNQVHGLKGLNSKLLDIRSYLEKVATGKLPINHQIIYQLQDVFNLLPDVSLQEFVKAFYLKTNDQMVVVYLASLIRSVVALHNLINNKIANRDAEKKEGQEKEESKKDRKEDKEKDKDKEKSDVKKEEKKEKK
The description is as above. The note with it: replicates A-C; for Log2 reporter intensity values: PSMD7: competition with ABP 2, DMSO substract (FC); for Log2 reporter intensity values: PSMD7, DMSO subtracted.

In a further assay the target is T3, USP21 (Homo sapiens, UniProt Q9UK80).
T3 sequence (Q9UK80 1-565): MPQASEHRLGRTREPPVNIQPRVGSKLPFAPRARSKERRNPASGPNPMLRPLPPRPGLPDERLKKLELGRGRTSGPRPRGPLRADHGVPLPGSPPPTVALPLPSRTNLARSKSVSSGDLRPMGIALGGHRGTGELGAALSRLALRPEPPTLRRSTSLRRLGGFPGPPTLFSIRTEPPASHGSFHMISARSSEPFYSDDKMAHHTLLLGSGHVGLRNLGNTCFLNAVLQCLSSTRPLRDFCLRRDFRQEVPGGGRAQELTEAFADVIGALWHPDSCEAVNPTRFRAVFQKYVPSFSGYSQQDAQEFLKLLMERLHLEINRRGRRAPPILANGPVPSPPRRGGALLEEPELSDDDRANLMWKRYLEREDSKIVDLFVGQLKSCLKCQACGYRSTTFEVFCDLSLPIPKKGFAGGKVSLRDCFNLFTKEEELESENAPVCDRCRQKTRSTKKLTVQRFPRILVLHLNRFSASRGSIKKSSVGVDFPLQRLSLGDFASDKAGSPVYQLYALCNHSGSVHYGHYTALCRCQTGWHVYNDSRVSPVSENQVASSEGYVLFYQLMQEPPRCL
Briefly: biochemical.

Where “and” joins values, the source holds several entries; their conditions need not be identical. Identical values can stand only once. A value given as a limit tells only on which side of the number the result lay.

Sequence of DUBs and other proteins in HEK293 cells (Homo sapiens, UniProt Q9UPU5) (Q9UPU5 whole entry): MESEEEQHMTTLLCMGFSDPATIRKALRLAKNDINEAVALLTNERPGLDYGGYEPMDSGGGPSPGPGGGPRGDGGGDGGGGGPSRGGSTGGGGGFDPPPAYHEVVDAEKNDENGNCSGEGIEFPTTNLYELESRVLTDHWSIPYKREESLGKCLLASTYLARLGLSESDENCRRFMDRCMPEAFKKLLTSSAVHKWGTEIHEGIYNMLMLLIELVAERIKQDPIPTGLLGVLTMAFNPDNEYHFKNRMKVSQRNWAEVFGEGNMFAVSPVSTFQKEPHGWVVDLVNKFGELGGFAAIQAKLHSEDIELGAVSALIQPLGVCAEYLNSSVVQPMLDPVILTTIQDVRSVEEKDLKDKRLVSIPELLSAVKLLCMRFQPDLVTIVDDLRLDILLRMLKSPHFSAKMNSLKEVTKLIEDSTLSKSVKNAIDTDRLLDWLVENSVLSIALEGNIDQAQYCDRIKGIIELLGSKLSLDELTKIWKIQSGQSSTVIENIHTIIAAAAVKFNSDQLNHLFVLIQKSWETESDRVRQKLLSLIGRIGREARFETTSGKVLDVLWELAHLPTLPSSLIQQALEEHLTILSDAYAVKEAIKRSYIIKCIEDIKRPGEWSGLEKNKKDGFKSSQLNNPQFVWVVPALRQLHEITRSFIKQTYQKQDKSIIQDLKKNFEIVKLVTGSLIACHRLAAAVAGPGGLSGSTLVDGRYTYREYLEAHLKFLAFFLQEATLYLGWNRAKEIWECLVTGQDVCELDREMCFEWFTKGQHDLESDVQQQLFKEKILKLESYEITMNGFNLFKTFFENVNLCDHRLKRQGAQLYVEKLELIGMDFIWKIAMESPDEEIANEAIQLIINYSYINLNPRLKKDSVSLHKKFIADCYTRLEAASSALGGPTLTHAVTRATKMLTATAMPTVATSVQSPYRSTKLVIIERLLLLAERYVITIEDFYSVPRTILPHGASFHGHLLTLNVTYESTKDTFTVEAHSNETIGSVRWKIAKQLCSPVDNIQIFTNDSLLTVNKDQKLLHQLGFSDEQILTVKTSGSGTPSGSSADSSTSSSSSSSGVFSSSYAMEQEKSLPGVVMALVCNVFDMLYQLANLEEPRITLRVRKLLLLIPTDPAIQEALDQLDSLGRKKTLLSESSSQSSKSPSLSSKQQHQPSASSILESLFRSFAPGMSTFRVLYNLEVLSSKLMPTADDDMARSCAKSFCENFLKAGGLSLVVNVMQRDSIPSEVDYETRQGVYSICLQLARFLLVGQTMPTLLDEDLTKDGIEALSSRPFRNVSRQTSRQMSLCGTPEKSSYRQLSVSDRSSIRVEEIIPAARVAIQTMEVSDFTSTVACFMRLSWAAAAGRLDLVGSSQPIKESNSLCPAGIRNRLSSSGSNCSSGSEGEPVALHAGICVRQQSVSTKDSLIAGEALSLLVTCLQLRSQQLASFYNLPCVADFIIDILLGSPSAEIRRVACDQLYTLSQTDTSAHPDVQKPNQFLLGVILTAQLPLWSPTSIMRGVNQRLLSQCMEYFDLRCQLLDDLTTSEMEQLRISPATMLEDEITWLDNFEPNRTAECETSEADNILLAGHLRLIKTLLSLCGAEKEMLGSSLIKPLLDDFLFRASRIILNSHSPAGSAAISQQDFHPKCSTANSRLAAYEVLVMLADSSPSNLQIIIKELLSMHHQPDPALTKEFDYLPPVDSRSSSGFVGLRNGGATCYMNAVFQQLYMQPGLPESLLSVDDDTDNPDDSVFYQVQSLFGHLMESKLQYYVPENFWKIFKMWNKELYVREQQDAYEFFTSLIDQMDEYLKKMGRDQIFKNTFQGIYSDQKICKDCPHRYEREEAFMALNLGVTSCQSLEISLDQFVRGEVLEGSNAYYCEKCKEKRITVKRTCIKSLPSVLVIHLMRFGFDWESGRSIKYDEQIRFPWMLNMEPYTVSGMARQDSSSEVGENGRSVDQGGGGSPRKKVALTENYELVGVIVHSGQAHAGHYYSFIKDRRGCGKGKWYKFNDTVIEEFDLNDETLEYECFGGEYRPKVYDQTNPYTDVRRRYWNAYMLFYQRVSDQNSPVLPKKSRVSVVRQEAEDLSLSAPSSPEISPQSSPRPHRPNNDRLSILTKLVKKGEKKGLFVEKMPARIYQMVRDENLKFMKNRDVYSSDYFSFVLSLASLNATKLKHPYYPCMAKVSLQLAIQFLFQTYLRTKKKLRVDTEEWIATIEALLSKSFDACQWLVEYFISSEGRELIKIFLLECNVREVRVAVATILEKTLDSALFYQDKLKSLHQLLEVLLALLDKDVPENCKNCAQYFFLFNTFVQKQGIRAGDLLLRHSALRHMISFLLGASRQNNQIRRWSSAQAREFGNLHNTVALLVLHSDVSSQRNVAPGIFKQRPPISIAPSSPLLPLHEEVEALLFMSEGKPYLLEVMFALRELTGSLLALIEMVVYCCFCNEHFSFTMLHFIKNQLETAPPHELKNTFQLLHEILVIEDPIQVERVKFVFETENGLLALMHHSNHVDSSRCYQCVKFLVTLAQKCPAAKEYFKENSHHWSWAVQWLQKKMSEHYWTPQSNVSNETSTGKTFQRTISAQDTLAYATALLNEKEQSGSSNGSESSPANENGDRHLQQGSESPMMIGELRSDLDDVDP
Sequence of DUBs and other proteins in HEK293 cells (Homo sapiens, UniProt O15372) (O15372 whole entry): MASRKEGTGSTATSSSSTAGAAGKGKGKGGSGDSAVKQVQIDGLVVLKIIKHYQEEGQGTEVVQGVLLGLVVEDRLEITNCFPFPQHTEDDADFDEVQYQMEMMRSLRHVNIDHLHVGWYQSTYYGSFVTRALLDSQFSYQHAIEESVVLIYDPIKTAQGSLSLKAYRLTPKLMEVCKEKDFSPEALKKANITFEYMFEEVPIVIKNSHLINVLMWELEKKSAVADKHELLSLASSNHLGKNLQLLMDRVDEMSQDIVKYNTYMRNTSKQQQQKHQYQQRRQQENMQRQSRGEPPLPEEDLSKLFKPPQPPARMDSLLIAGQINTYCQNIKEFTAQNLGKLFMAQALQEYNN

For the compound `N#CN1CCC[C@H]1C(=O)N1CCc2c(-c3c[nH]c4ncccc34)cccc21` [Compound 1], the “Log2 reporter intensity values, EIF3H” value is -0.09256 and -0.05547 and -0.03085 in assay [1] (1 μM 1 (60 min) + 20 nM ABP 2 (10 min), All values); -0.1222 and -0.08506 and -0.06044 in assay [1] (1 μM 1 (60 min) + 20 nM ABP 2 (10 min), DMSO subtracted); -0.07138 and -0.1308 and -0.1362 in assay [1] (4 μM 1 (60 min) + 20 nM ABP 2 (10 min), All values); -0.101 and -0.1603 and -0.1658 in assay [1] (4 μM 1 (60 min) + 20 nM ABP 2 (10 min), DMSO subtracted). In addition, the “Log2 reporter intensity values: EIF3H” value in assay [1] (1 at 1 μM) was 0.9188 and 0.9427 and 0.959; in assay [1] (1 at 4 μM) it was 0.9324 and 0.8948 and 0.8914. The figures for the “Log2 t-test Difference” value in assay [1] (1 - 1 μM) and in assay [1] (1 - 4 μM) were -0.08557 and -0.1387, respectively. The “Log2 reporter intensity values” in assay [1] (1_1 μM, DMSO subtracted) was -0.08133 and -0.0574 and -0.04117; in assay [1] (1_4 μM, DMSO subtracted), -0.06774 and -0.1053 and -0.1087; in assay [1] (1 at 1 μM, DMSO subtracted), -0.1222 and -0.08506 and -0.06044; in assay [1] (1 at 4 μM, DMSO subtracted) it was -0.101 and -0.1603 and -0.1658; in assay [2] (1_1 μM), 0.0219 and 0.02206 and -0.02613; in assay [2] (1_4 μM), -0.05104 and 0.005497 and -0.01849. The “Log2 reporter intensity values” was 0.0313 and 0.03153 and -0.03815 in assay [2] (1 at 1 μM); -0.07554 and 0.007953 and -0.02689 in assay [2] (1 at 4 μM); -0.002058 and 0.08693 and 0.2444 in assay [3] (1_1 μM); -0.02929 and -0.01601 and -0.01571 in assay [3] (1_4 μM); 0.00188 and 0.1247 and 0.3193 in assay [3] (1 at 1 μM); -0.0379 and -0.01836 and -0.01793 in assay [3] (1 at 4 μM). Besides, the “Log2 reporter intensity values” in assay [4] (1_1 μM) is 0.08158 and 0.0009743 and 0.04766; in assay [4] (1_4 μM) it was 0.05297 and -0.002249 and 0.06752; in assay [4] (1 at 1 μM), 0.1136 and 0.00189 and 0.06764; in assay [4] (1 at 4 μM) it was 0.07493 and -0.002761 and 0.09472; in assay [5] (1_1 μM), -0.02722 and -0.01785 and -0.04454; in assay [5] (1_4 μM), -0.02801 and -0.06107 and -0.02897. In addition, the “Log2 reporter intensity values” is -0.03934 and -0.0255 and -0.06525 in assay [5] (1 at 1 μM); -0.04051 and -0.09041 and -0.04193 in assay [5] (1 at 4 μM); 0.1278 and 0.002507 and 0.05011 in assay [6] (1_1 μM); 0.06753 and 0.04399 and 0.2288 in assay [6] (1_4 μM); 0.1768 and 0.007299 and 0.07406 in assay [6] (1 at 1 μM); 0.09774 and 0.06565 and 0.3003 in assay [6] (1 at 4 μM). Further, the “Log2 reporter intensity values: USP9X;USP9Y” value was 1.022 (2×) and 0.9739 in assay [2] (1 at 1 μM); 0.949 and 1.006 and 0.9815 in assay [2] (1 at 4 μM). Further, the “Log2 reporter intensity values: USP24” value in assay [3] (1 at 1 μM) is 1.001 and 1.09 and 1.248; in assay [3] (1 at 4 μM), 0.9741 and 0.9874 and 0.9877. For the same compound, the “Log2 reporter intensity values: USP11” value in assay [4] (1 at 1 μM) is 1.082 and 1.001 and 1.048; in assay [4] (1 at 4 μM), 1.053 and 0.9981 and 1.068. For the same compound, the “Log2 reporter intensity values: USP5” value is 0.9731 and 0.9825 and 0.9558 in assay [5] (1 at 1 μM); 0.9723 and 0.9393 and 0.9714 in assay [5] (1 at 4 μM). For the same compound, the “Log2 reporter intensity values: PSMD7” value in assay [6] (1 at 1 μM) is 1.13 and 1.005 and 1.053; in assay [6] (1 at 4 μM), 1.07 and 1.047 and 1.231. The compound also returned an IC50 against USP21 of over 10 µM.

At USP21, `CC(=O)O/N=C1\C(=O)N(Cc2cc(Cl)ccc2Cl)c2ccc(Cl)cc21` [LDN-57444, reference compound] returned an IC50 of over 10 µM.
